Measurements published in PMC5342483, “Nucleoside 5′-O-monophosphorothioates as modulators of the P2Y14 receptor and mast cell degranulation” (Oncotarget, 2016).

What was measured:
Type in all cases: cell-based
P2Y14 receptor [1] = molecular target: T1, P2Y14 receptor (Homo sapiens, UniProt Q15391); assay: Agonist calcium mobilization assay (Fluo-8) in HEK293T Gαqi5 cells stably expressing human P2Y14R; settings: HEK-293T; read-out: CONCENTRATION / 100 μM
T1 construct: gene P2RY14
T1 sequence (Q15391 1-338): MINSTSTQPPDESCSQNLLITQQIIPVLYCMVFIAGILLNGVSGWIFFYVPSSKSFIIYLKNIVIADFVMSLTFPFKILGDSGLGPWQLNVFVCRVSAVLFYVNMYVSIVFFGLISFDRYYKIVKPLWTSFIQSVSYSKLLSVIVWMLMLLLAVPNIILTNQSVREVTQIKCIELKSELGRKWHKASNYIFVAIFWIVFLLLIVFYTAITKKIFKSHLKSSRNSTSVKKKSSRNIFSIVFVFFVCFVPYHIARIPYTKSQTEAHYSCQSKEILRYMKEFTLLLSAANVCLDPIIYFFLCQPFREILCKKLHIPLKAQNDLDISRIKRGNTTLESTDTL

P2Y14 receptor [2] = molecular target: T1, P2Y14 receptor; assay: Antagonist calcium mobilization assay (Fluo-8) in HEK293T Gαqi5 cells stably expressing human P2Y14R; residual response to UDPG (EC80)[…] at […], […] at […]; settings: HEK-293T; read-out: CONCENTRATION / 1000 μM
P2Y14 receptor [3] = molecular target: T1, P2Y14 receptor; assay: Agonist calcium mobilization assay (Fluo-8) in HEK293T Gαqi5 cells stably expressing human P2Y14R; settings: HEK-293T; read-out: CONCENTRATION / 1 μM

Row | SMILES | activation at 100 µM (P2Y14 receptor [1]) [%] | also measured
1 | Nc1ncnc2c1ncn2[C@@H]1O[C@H](COP(O)(O)=S)[C@@H](O)[C@H]1O [AMPS, adenosine 5'-O-monophosphorothioate] | 84.4 ± 17.6 | –
2 | Nc1ccn([C@@H]2O[C@H](COP(O)(O)=S)[C@@H](O)[C@H]2O)c(=O)n1 [CMPS, cytidine 5'-O-monophosphorothioate] | 77.5 ± 4.4 | –
3 | Cc1cn([C@H]2C[C@H](O)[C@@H](COP(O)(O)=S)O2)c(=O)[nH]c1=O [TMPS, thymidine 5'-O-monophosphorothioate] | – | activity at 1000 µM (P2Y14 receptor [2]): 17.3 ± 52.9%
4 | O=c1ccn([C@@H]2O[C@H](COP(O)(O)=S)[C@@H](O)[C@H]2O)c(=O)[nH]1 [UMPS, uridine 5'-O-monophosphorothioate] | – | activation at 1 µM (P2Y14 receptor [3]): 84.5 ± 5.34%
